Source: patent US20240309014A1, “MACROCYCLIC COMPOUNDS AND USES THEREOF” (President and Fellows of Harvard College, priority 2017, published 2024)

Columns and labels:
[1] = tested on: HCCl806 subcutaneous xenograft; test: Antitumor activity against HCC1806 subcutaneous xenograft as monotherapy; format: in vivo, nude mice; conditions: 0.18 mg/kg i.v., Q7Dx2
Protocol: A human breast cancer cell line HCCl806, which had been cultured in an RPMI-1640 medium containing 10% FBS, and penicillin and streptomycin, was adjusted to a concentration of 1×10^8 cells/mL with PBS to prepare a cell suspension, and the suspension was mixed with Matrigel™ (BD Bioscience, #366237) in a ratio of 1:1 to prepare a cell suspension in a concentration of 5×10^7 cell/mL. The cell suspension was inoculated in a volume of 100 μL into a subcutaneous part of a right flank of nude mice, 5 weeks of ages (CAnN.Cg-Foxnlnu/CrlCrlj, female, Charles River Laboratories Japan, Inc.). Twelve days after cell inoculation, the shortest diameter and the longest diameter of a tumor in each mouse were measured by using an electronic digital caliper (Digimatic™ caliper, Mitutoyo Corporation), so as to calculate the volume of the tumor in accordance with the following calculation formulae: […]
On the basis of the volumes of tumors obtained on the first day of administration, the mice were grouped such that averages of the tumor volumes were substantially equal among the groups. The experiment was conducted on groups each consisting of 6 mice. Test compound was dissolved in saline and intravenously administered at 0.18 mg/kg once a week for 2 weeks (Q7Dx2 schedule).

[2] = tested on: OE21, OE33, TE-8, MES-SA, MES-SA/Dx5-RX1 cell lines; test: In vitro antiproliferative activity, esophageal and uterine cancer cell panel (FIG. 11); format: cell-based, human; conditions: 72 hours, CellTiter-Glo; values only in FIG. 11
Protocol: The in vitro antiproliferative assays for Compound (1) were conducted using a small panel of cancer cell lines including human squamous cell carcinoma of the esophagus (OE21, TE-8), human […] of the esophagus (OE33), and human uterine sarcoma (MES-SA, MES-SA-Dx5-R^X1). All cell lines were cultured in RPMI-1640 medium containing 10% FBS, and penicillin-streptomycin (culture medium), in a 5% CO2 incubator (37° C.). To each well of a 96 well plate (Becton, Dickinson and Company, 353219), 75 μL of cell suspension adjusted to a concentration of 4×10^4 cells/mL with the culture medium was added, and the cells were incubated overnight in a 5% CO2 incubator (37° C.). On the next day, 25 μL of Compound (1) in three-fold dilution series suspended in the culture medium was added to each well, and the resultant was incubated for 72 hours in a 5% CO2 incubator (37° C.). Then, cell viability was determined by CellTiter-Glo® Luminescent Cell Viability Assay (Promega) with 2013 EnVision™ Multilabel Reader (Perkin-Elmer, Wellesley, MA). Value of the wells containing cells without adding the test compounds was defined as 100% and the value of the wells containing no cells was defined as 0%. […] The P-gp susceptibility was calculated as the ratio of the IC50 value in MES-SA-Dx5-R^X1 cells, which overexpress P-gp, to the IC50 value in MES-SA cells.

[3] = tested on: BJ normal human fibroblasts stimulated with TGF-β; test: TGF-β-treated BJ cells, in vitro CAF-inducing system; format: cell-based
Protocol: FIG. 19A. BJ cells (normal human […] fibroblasts) were co-cultured with FaDu cells for three days in the absence (vehicle) or presence of A83-01, a potent selective TGF-β-R inhibitor, and the expression of α-SMA was analysed by immunofluorescence staining (red color). Samples were also stained with anti-pan-human cytokeratin (green color) for cancer cell staining and DAPI (blue color) for nuclear staining. FIGS. 19B-19E BJ cells were treated with Compound (1) (0.15 nmol/L in immunofluorescence staining data and indicated concentrations in western blot analysis data) and TGF-β for 2 days. FIGS. 19B-19E. Samples were stained with the indicated antibody (red color) and DAPI (blue color) for nuclear staining. FIG. 19E Western blot images and quantification of the images. […] FIGS. 19G and 19E BJ cells were pretreated with defactinib (1 μmol/L) and TGF-β for 2 days. The lens magnification used was x4 (FIGS. 19A, 19B, 19C, 19G, and 19H) or x40 (FIGS. 19D and 19E).
FIGS. 20A and 20B. Quantification of immunofluorescence images of BJ cells treated with TGF-β(1 ng/mL) and the indicated concentrations of Compound (1) for α-SMA (FIG. 20A), Phospho-S6-ribosomal protein (Ser235/236) (FIG. 20B). FIG. 20C. Immunofluorescence analysis of BJ cells treated with TGF-β in the absence or presence of dactolisib, a phosphatidylinositol 3 kinase inhibitor. FIG. 20D. Immunofluorescence analysis of phosphorylated Smad⅔ in BJ cells pretreated with Compound (1) (72 hours) after 30 minutes of stimulation with TGF-β. Acetylated-α-tubulin was co-stained to confirm the activity of Compound (1). FIG. 20E. Western blot analysis of Smad⅔ in BJ cells treated with TGF-β and the indicated concentrations of Compound (1). The lens magnification used was x4 (FIG. 20C) or x40 (FIG. 20D).
The expression of α-SMA was induced in BJ normal human fibroblasts upon co-cultivation with FaDu cells, and the expression was attenuated by treatment with A83-01, a potent selective inhibitor of the TGF-β-receptor (FIG. 19A).
Under the same experimental conditions, the enhanced formation of focal adhesions, which were detected as punctate structures with an antibody against phosphorylated FAK at tyrosine-397, after stimulation with TGF-β was decreased in BJ cells by treatment with Compound (1) (FIG. 19E). Many signalling complexes are assembled in focal adhesion sites, and those complexes dispatch several downstream signals, including those involved in the PI3K/AKT/mTOR pathway. See, e.g., Sulzmaier et. al. “FAK in cancer: mechanistic findings and clinical applications”, Nature Reviews Cancer 2014, 14, 598-610.

Compound: C=C1C[C@@H]2CC[C@@]34C[C@H]5O[C@H]6[C@@H](O3)[C@H]3O[C@H](CC[C@@H]3O[C@H]6C5O4)CC(=O)O[C@@H]3[C@@H](C)[C@@H]4O[C@@H]5C[C@]6(C[C@@H]7O[C@]8(C[C@H](C)[C@@H]9O[C@H](CN)[C@H](O)C[C@@H]9O8)C[C@H](C)[C@@H]7O6)O[C@@H]5C[C@@H]4O[C@H]3C[C@H]3O[C@@H](CC[C@@H]1O2)C[C@@H](C)C3=C (stereo in doubt) [Compound (1)]
- Tumor Regression (%) [1]: 90%
- antiproliferative activity [2]: potent antiproliferative agent
- TGF-β-induced phosphorylation and nuclear localization of Smad⅔ ([3]; BJ cells): did not significantly change
- enhanced formation of focal adhesions (phosphorylated FAK at tyrosine-397) ([3]; BJ cells after stimulation with TGF-β): decreased
- activation of the PI3K/AKT/mTOR pathway ([3]; BJ cells treated with TGF-β): reduce the activation of the PI3K/AKT/mTOR pathway
- TGF-β-enhanced P3-tubulin expression and microtubule network formation ([3]; BJ cells, co-treatment with TGF-β): diminished
- α-SMA induction by TGF-β ([3]; BJ cells, immunofluorescence, 2 days): interfered with α-SMA induction by TGF-β in BJ cells without growth inhibitory activity
